Key:
Rattus norvegicus [1] = experiment: pH of the gastric juice (Control value = 1.44+/-0.01) of stomach content of pylorus ligated rats was measured (10 mg/kg po of the Compound was administered 1 hr before the pylorus ligation); assay type: ADME, organism-based; conditions: in vivo
Rattus norvegicus [2] = experiment: Acid output from the stomach (control value = 119.7+/-11.7) in pylorus ligated rats (10 mg/kg po of the Compound was administered 1 hr before the pylorus ligation); assay type: functional
Rattus norvegicus [3] = experiment: Acid output from the stomach (control value = 119.7+/-11.7) in pylorus ligated rats (5 mg/kg po of the Compound was administered 1 hr before the pylorus ligation); assay type: functional
Rattus norvegicus [4] = experiment: Percent inhibition of gastric lesions (length = 102.2+/-8.1) induced by ethanol was measured, after administration of 5 mg/kg po in endomethacin pretreated rats; assay type: functional; conditions: Stomach
Rattus norvegicus [5] = experiment: Percent inhibition of gastric lesions (length = 15.3+/-2.9) induced by ethanol was measured, after administration of 10 mg/kg po in rats; assay type: functional; conditions: Stomach
Rattus norvegicus [6] = experiment: Percent inhibition of gastric lesions (length = 31.4+/-3.8) induced by ethanol was measured, after administration of 10 mg/kg po in L-NAME-pretreated rats; assay type: functional; conditions: Stomach
Rattus norvegicus [7] = experiment: Percent inhibition of gastric lesions (length = 60.8+/-11.6) induced by ethanol was measured, after administration of 5 mg/kg po in L-NAME-pretreated rats; assay type: functional; conditions: Stomach
Rattus norvegicus [8] = experiment: Percent inhibition of gastric lesions (length = 61.5+/-4.4) induced by ethanol was measured, after administration of 10 mg/kg po in NEM-pretreated rats; assay type: functional; conditions: Stomach
Rattus norvegicus [9] = experiment: Percent inhibition of gastric lesions (length = 92.3+/-9) induced by ethanol was measured, after administration of 5 mg/kg po in NEM-pretreated rats; assay type: functional; conditions: Stomach
Rattus norvegicus [10] = experiment: Percent inhibition of gastric lesions (length = 96.1+/-13.7) induced by ethanol was measured, after administration of 10 mg/kg po in endomethacin pretreated rats; assay type: functional; conditions: Stomach
Rattus norvegicus [11] = experiment: Percent inhibition of gastric lesions induced by ethanol was measured, after administration of 10 mg/kg po in rats; assay type: functional; conditions: Stomach
Rattus norvegicus [12] = experiment: Percent inhibition of gastric lesions induced by ethanol was measured, after administration of 2.5 mg/kg po in rats; assay type: functional; conditions: Stomach
Rattus norvegicus [13] = experiment: Percent inhibition of gastric lesions induced by ethanol was measured, after administration of 5 mg/kg po in rats; assay type: functional; conditions: Stomach
Rattus norvegicus [14] = experiment: Percent inhibition of gastric lesions induced by endomethacin was measured, after administration of 10 mg/kg po in rats; assay type: functional; conditions: Stomach
Rattus norvegicus [15] = experiment: Percent inhibition of gastric lesions induced by endomethacin was measured, after administration of 2.5 mg/kg po in rats; assay type: functional; conditions: Stomach
Rattus norvegicus [16] = experiment: Percent inhibition of gastric lesions induced by endomethacin was measured, after administration of 5 mg/kg po in rats; assay type: functional; conditions: Stomach
Rattus norvegicus [17] = experiment: Reduction in length (control value = 126.1+/-5.7) of gastric lesions induced by ethanol was measured, after administration of 10 mg/kg po in rats; assay type: functional, Stomach
Rattus norvegicus [18] = experiment: Reduction in length (control value = 126.1+/-5.7) of gastric lesions induced by ethanol was measured, after administration of 2.5 mg/kg po in rats; assay type: functional, Stomach
Rattus norvegicus [19] = experiment: Reduction in length (control value = 126.1+/-5.7) of gastric lesions induced by ethanol was measured, after administration of 5 mg/kg po in rats; assay type: functional, Stomach
Rattus norvegicus [20] = experiment: Reduction in length (control value = 124.3+/-7.8) of gastric lesions induced by ethanol was measured, after administration of 10 mg/kg po in indomethacin-pretreated rats; assay type: functional, Stomach
Rattus norvegicus [21] = experiment: Reduction in length (control value = 124.3+/-7.8) of gastric lesions induced by ethanol was measured, after administration of 5 mg/kg po in indomethacin-pretreated rats; assay type: functional, Stomach
Rattus norvegicus [22] = experiment: Reduction in length (control value = 169.6+/-1.9) of gastric lesions induced by ethanol was measured, after administration of 10 mg/kg po in NEM-pretreated rats; assay type: functional, Stomach
Rattus norvegicus [23] = experiment: Reduction in length (control value = 169.6+/-1.9) of gastric lesions induced by ethanol was measured, after administration of 5 mg/kg po in NEM-pretreated rats; assay type: functional, Stomach
Rattus norvegicus [24] = experiment: Reduction in length (control value = 188.7+/-10.5) of gastric lesions induced by ethanol was measured, after administration of 5 mg/kg po in L-NAME-pretreated rats; assay type: functional, Stomach
Rattus norvegicus [25] = experiment: Reduction in length (control value = 206.7+/-6.3) of gastric lesions induced by endomethacin was measured, after administration of 5 mg/kg po NEM-pretreated in rats; assay type: functional, Stomach
Rattus norvegicus [26] = experiment: Reduction in length (control value = 70.8+/-5.3) of gastric lesions induced by endomethacin was measured, after administration of 10 mg/kg po in rats; assay type: functional, Stomach
Rattus norvegicus [27] = experiment: Reduction in length (control value = 70.8+/-5.3) of gastric lesions induced by endomethacin was measured, after administration of 2.5 mg/kg po in rats; assay type: functional, Stomach
Rattus norvegicus [28] = experiment: Reduction in length (control value = 70.8+/-5.3) of gastric lesions induced by endomethacin was measured, after administration of 5 mg/kg po in rats; assay type: functional, Stomach
Rattus norvegicus [29] = experiment: Volume of the gastric juice (Control value = 4.9+/-0.3) of stomach content of pylorus ligated rats was measured (10 mg/kg po of the Compound was administered 1 hr before the pylorus ligation); assay type: functional
Rattus norvegicus [30] = experiment: Volume of the gastric juice (Control value = 4.9+/-0.3) of stomach content of pylorus ligated rats was measured (5 mg/kg po of the Compound was administered 1 hr before the pylorus ligation); assay type: functional
Rattus norvegicus [31] = experiment: pH of the gastric juice (Control value = 1.44+/-0.01) of stomach content of pylorus ligated rats was measured ( 5 mg/kg po of the Compound was administered 1 hr before the pylorus ligation); assay type: ADME, organism-based; parameters: dose 5 mg/kg, route oral; conditions: in vivo
Rattus norvegicus [32] = experiment: Percent inhibition of gastric lesions (length = 35.7+/-2.3) induced by ethanol was measured, after administration of 5 mg/kg po in rats; assay type: functional; conditions: Stomach
Rattus norvegicus [33] = experiment: Reduction in length (control value = 126+/-9.1) of gastric lesions induced by ethanol was measured, after administration of 5 mg/kg po in rats; assay type: functional, Stomach
Rattus norvegicus [34] = experiment: Reduction in length ((control value = 126+/-9.1)of gastric lesions induced by ethanol was measured, after administration of 2.5 mg/kg po in rats; assay type: functional, Stomach
Rattus norvegicus [35] = experiment: Reduction in length (control value = 88.9+/-5.5) of gastric lesions induced by endomethacin was measured, after administration of 5 mg/kg po in rats; assay type: functional, Stomach
Rattus norvegicus [36] = experiment: Reduction in length (control value = 54.6+/-16.5) of gastric lesions induced by endomethacin was measured, after administration of 10 mg/kg po in rats; assay type: functional, Stomach
Rattus norvegicus [37] = experiment: Reduction in length (control value = 107+/-14.5) of gastric lesions induced by ethanol was measured, after administration of 2.5 mg/kg po in rats; assay type: functional, Stomach
Rattus norvegicus [38] = experiment: Reduction in length (control value = 138+/-12.1) of gastric lesions induced by ethanol was measured, after administration of 10 mg/kg po in rats; assay type: functional, Stomach
Rattus norvegicus [39] = experiment: Reduction in length (control value = 62.8+/-12.4) of gastric lesions induced by endomethacin was measured, after administration of 10 mg/kg po in rats; assay type: functional, Stomach
Rattus norvegicus [40] = experiment: Reduction in length ((control value = 126+/-9.1) of gastric lesions induced by ethanol was measured, after administration of 2.5 mg/kg po in rats; assay type: functional, Stomach

C[C@@H]1CC[C@@]2(OC1)OC1C[C@H]3[C@@H]4CC=C5C[C@@H](O[C@@H]6O[C@H](CO)[C@@H](O[C@@H]7O[C@@H](CO)[C@H](O)[C@H]7O)[C@H](O)[C@H]6O[C@@H]6O[C@@H](C)[C@H](O)[C@@H](O)[C@H]6O)CC[C@]5(C)[C@H]4CC[C@]3(C)C1[C@@H]2C (some centres not stated) gave a pH (Rattus norvegicus [1]) of 1.48, an Acid output (Rattus norvegicus [2]) of 82.1 u equiv hr-1 and an Acid output (Rattus norvegicus [3]) of 100.5 u equiv hr-1. For the same compound, the inhibition in vivo at 5 mg/kg (Rattus norvegicus [4]) was 17.8%, the inhibition in vivo at 10 mg/kg (Rattus norvegicus [5]) was 86.9% and the inhibition in vivo at 10 mg/kg (Rattus norvegicus [6]) was 83.4%. For the same compound, the inhibition in vivo at 5 mg/kg (Rattus norvegicus [7]) was 67.8%, the inhibition in vivo at 10 mg/kg (Rattus norvegicus [8]) was 63.7% and the inhibition in vivo at 5 mg/kg (Rattus norvegicus [9]) was 45.6%. The inhibition in vivo at 10 mg/kg (Rattus norvegicus [10]) was 22.7%, the inhibition in vivo at 10 mg/kg (Rattus norvegicus [11]) was 91% and the inhibition in vivo at 2.5 mg/kg (Rattus norvegicus [12]) was 39.7%. For the same compound, the inhibition in vivo at 5 mg/kg (Rattus norvegicus [13]) was 63.1%, the inhibition in vivo at 10 mg/kg (Rattus norvegicus [14]) was 84.6% and the inhibition in vivo at 2.5 mg/kg (Rattus norvegicus [15]) was 60.6%. It also gave an inhibition in vivo at 5 mg/kg (Rattus norvegicus [16]) of 67.2%, a Length (Rattus norvegicus [17]) of 11.4 mm and a Length (Rattus norvegicus [18]) of 76.1 mm. It also gave a Length (Rattus norvegicus [19]) of 46.5 mm, a Length (Rattus norvegicus [20]) of 96.1 mm and a Length (Rattus norvegicus [21]) of 102 mm. The Length (Rattus norvegicus [22]) was 31.4 mm, the Length (Rattus norvegicus [23]) was 92.3 mm and the Length (Rattus norvegicus [24]) was 60.8 mm. For the same compound, the Length (Rattus norvegicus [25]) was 61.5 mm, the Length (Rattus norvegicus [26]) was 10.9 mm and the Length (Rattus norvegicus [27]) was 27.9 mm. It also gave a Length (Rattus norvegicus [28]) of 23.2 mm, a Volume (Rattus norvegicus [29]) of 3.6 ml 4hr-1 and a Volume (Rattus norvegicus [30]) of 4.4 ml 4hr-1. The pH (Rattus norvegicus [31]) was 1.47 and the inhibition in vivo at 5 mg/kg (Rattus norvegicus [32]) was 69.3%.
C[C@H](CCC1(O)OC2CC3C4CC=C5C[C@@H](O[C@@H]6O[C@H](CO)[C@@H](O)[C@H](O)[C@H]6O[C@@H]6O[C@@H](C)[C@H](O)[C@@H](O)[C@H]6O)CC[C@]5(C)C4CC[C@]3(C)C2[C@@H]1C)CO[C@@H]1O[C@H](CO)[C@@H](O)[C@H](O)[C@H]1O (some centres not stated) [TRIGOFOENOSIDE A] was tested, and the inhibition in vivo at 2.5 mg/kg (Rattus norvegicus [12]) was 26.2%, the inhibition in vivo at 5 mg/kg (Rattus norvegicus [13]) was 11.7% and the inhibition in vivo at 5 mg/kg (Rattus norvegicus [16]) was 16%. It also gave a Length (Rattus norvegicus [33]) of 111 mm, a Length (Rattus norvegicus [34]) of 93 mm and a Length (Rattus norvegicus [35]) of 74.7 mm.
C[C@@H]1CC[C@@]2(OC1)O[C@H]1C[C@H]3[C@@H]4CC=C5C[C@@H](O)CC[C@]5(C)[C@H]4CC[C@]3(C)[C@H]1[C@@H]2C [DISOGENIN] showed an inhibition in vivo at 10 mg/kg (Rattus norvegicus [11]) of 28.1%, an inhibition in vivo at 10 mg/kg (Rattus norvegicus [14]) of 8.6% and a Length (Rattus norvegicus [36]) of 49.9 mm. The Length (Rattus norvegicus [37]) was 76.9 mm.
Work on CC1CC[C@@]2(OC1)OC1CC3C4CC=C5C[C@@H](O)CC[C@]5(C)C4CC[C@]3(C)[C@@]1(O)[C@@H]2C (some centres not stated) yielded an inhibition in vivo at 10 mg/kg (Rattus norvegicus [11]) of 2.5%, an inhibition in vivo at 10 mg/kg (Rattus norvegicus [14]) of 6.8% and a Length (Rattus norvegicus [38]) of 134 mm. It also gave a Length (Rattus norvegicus [39]) of 67.1 mm.
In the case of C[C@H](CCC1(O)OC2CC3C4CC=C5C[C@@H](O[C@@H]6O[C@H](CO)C(O[C@@H]7O[C@@H](CO)[C@H](O)[C@H]7O)[C@@H](O)[C@H]6O[C@@H]6O[C@@H](C)[C@H](O)[C@@H](O)[C@H]6O)CC[C@]5(C)C4CC[C@]3(C)C2[C@@H]1C)CO[C@@H]1O[C@H](CO)[C@@H](O)[C@H](O)[C@H]1O (some centres not stated) [PARISAPONIN I], the inhibition in vivo at 2.5 mg/kg (Rattus norvegicus [12]) is reported as 9.2%, the inhibition in vivo at 5 mg/kg (Rattus norvegicus [13]) is reported as 15.6% and the inhibition in vivo at 5 mg/kg (Rattus norvegicus [16]) is reported as 7.2%. For the same compound, the Length (Rattus norvegicus [33]) was 106 mm, the Length (Rattus norvegicus [40]) was 114 mm and the Length (Rattus norvegicus [35]) was 82.5 mm.
